Measurements taken from ChEMBL document CHEMBL5316285 (J Med Chem, 2023).
Active and inactive are the calls of the source. No cut-off for these calls is given here.

Legend:
[1] = target: T1, von Hippel-Lindau disease tumor suppressor/Nicotinamide phosphoribosyltransferase (Homo sapiens, UniProt P43490+P40337); test: Protac activity at VHL/NAMPT in human A2780 cells assessed as reduction of NAMPT protein level at 10 nM measured after 24 hrs by Western blotting analysis; type: cell-based
Target sequence in this assay (P40337 whole entry, looked up): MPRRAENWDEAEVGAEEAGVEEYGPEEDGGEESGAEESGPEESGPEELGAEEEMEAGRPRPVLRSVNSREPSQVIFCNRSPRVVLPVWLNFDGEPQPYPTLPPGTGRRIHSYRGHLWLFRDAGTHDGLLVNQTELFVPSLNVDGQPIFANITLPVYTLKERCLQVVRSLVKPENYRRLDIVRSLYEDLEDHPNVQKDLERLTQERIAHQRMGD
Target sequence in this assay (P43490 whole entry, looked up): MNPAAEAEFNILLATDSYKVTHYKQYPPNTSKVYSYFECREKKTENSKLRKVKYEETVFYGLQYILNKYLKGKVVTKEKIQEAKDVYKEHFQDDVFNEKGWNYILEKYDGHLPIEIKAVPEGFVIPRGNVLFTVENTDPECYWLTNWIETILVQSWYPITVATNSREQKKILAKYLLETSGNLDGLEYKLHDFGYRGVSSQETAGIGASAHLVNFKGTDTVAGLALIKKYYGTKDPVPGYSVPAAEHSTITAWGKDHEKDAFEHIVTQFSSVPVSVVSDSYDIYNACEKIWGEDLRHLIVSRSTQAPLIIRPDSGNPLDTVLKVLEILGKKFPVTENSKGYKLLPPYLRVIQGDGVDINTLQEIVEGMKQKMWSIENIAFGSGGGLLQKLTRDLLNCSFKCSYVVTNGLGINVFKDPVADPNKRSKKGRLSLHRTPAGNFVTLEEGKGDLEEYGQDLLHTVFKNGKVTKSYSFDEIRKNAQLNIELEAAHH

[2] = target: Nicotinamide phosphoribosyltransferase (Homo sapiens, UniProt P43490); test: Inhibition of NAMPT (unknown origin) using NAM as substrate preincubated for 5 mins followed by substrate addition measured after 15 mins in presence of ATP by fluorescence based microplate reader analysis
Sequence of Nicotinamide phosphoribosyltransferase (P43490 whole entry): as the sequence (P43490 whole entry, looked up) above

[3] = target: T1, von Hippel-Lindau disease tumor suppressor/Nicotinamide phosphoribosyltransferase; test: Protac activity at VHL/NAMPT in human A2780 cells assessed as induction of NAMPT degradation measured at 0.005 to 10 microM after 24 hrs by Western blotting analysis; type: cell-based; conditions: dose 0.005-10 µM
Target sequence in this assay (P40337 whole entry, looked up): as the sequence (P40337 whole entry, looked up) above
Target sequence in this assay (P43490 whole entry, looked up): as the sequence (P43490 whole entry, looked up) above

[4] = target: T1, von Hippel-Lindau disease tumor suppressor/Nicotinamide phosphoribosyltransferase; test: Protac activity at VHL/NAMPT in human A2780 cells assessed as degradation of NAMPT using NAM as substrate preincubated for 5 mins followed by substrate addition measured after 5 mins in presence of ATP by luminesence based microplate reader analysis; type: cell-based
Target sequence in this assay (P43490 whole entry): as the sequence (P43490 whole entry, looked up) above
Target sequence in this assay (P40337 whole entry): as the sequence (P40337 whole entry, looked up) above

A2780 [5] = test: Antiproliferative activity against human A2780 cells incubated for 72 hrs in carbon-dioxide atmosphere measured by cell counting kit-8 method; type: functional, cell-based; conditions: A2780, 72 h
[6] = target: T1, von Hippel-Lindau disease tumor suppressor/Nicotinamide phosphoribosyltransferase; test: Protac activity at VHL/NAMPT in human A2780 cells assessed as induction of NAMPT degradation measured at 500 to 5000 nM after 24 hrs by Western blotting analysis; type: cell-based; conditions: dose 500-5000 nM
Target sequence in this assay (P40337 whole entry, looked up): as above
Target sequence in this assay (P43490 whole entry, looked up): as the sequence (P43490 whole entry, looked up) above

[7] = target: T1, von Hippel-Lindau disease tumor suppressor/Nicotinamide phosphoribosyltransferase; test: Protac activity at VHL/NAMPT in human A2780 cells assessed as induction of NAMPT degradation measured at 5 to 50 nM after 24 hrs by Western blotting analysis; type: cell-based; conditions: dose 5-50 nM
Target sequence in this assay (P40337 whole entry, looked up): as the sequence (P40337 whole entry, looked up) above
Target sequence in this assay (P43490 whole entry, looked up): as the sequence (P43490 whole entry, looked up) above

CT26 = test: Antiproliferative activity against mouse CT26 cells; type: functional, cell-based
A2780 [8] = test: Antitumor activity against human A2780 cells xenografted in nude mouse assessed as tumor growth inhibition at 2 uM/Kg, IV once every 3 days upto 21 days relative to control; type: functional; conditions: time 21 day, at 2 µmol/kg
[9] = Retinal toxicity in nude mouse xenografted with human A2780 cells at 2 uM/Kg, IV once every 3 days upto 21 days by microscopic analysis; conditions: 504 h, time 21 day
[10] = target: T1, von Hippel-Lindau disease tumor suppressor/Nicotinamide phosphoribosyltransferase; test: Protac activity at VHL/NAMPT in human A2780 cells assessed as reduction of NAMPT protein level at 0.1 to 100 nM measured after 24 hrs by Western blotting analysis; type: cell-based; conditions: dose 0.1-100 nM
Target sequence in this assay (P40337 whole entry, looked up): as the sequence (P40337 whole entry, looked up) above
Target sequence in this assay (P43490 whole entry, looked up): as the sequence (P43490 whole entry, looked up) above

[11] = target: T1, von Hippel-Lindau disease tumor suppressor/Nicotinamide phosphoribosyltransferase; test: Protac activity at VHL/NAMPT in human A2780 cells assessed as induction of NAMPT degradation measured at 0.2 to 500 nM after 24 hrs by Western blotting analysis; type: cell-based; conditions: dose 0.2-500 nM
Target sequence in this assay (P40337 whole entry, looked up): as the sequence (P40337 whole entry, looked up) above
Target sequence in this assay (P43490 whole entry, looked up): as the sequence (P43490 whole entry, looked up) above

[12] = Toxicity in nude mouse xenografted with human A2780 cells assessed as pathological damage in lung at 2 uM/Kg, IV once every 3 days upto 21 days by hematoxylin and eosin staining analysis; type: tissue-based; conditions: 504 h, time 21 day
[13] = Toxicity in nude mouse xenografted with human A2780 cells assessed as loss in body weight at 2 uM/Kg, IV once every 3 days upto 21 days; conditions: 504 h, time 21 day
[14] = Toxicity in nude mouse xenografted with human A2780 cells assessed as pathological damage in kidney at 2 uM/Kg, IV once every 3 days upto 21 days by hematoxylin and eosin staining analysis; type: tissue-based; conditions: 504 h, time 21 day

For `Cc1ncsc1-c1ccc([C@H](C)NC(=O)[C@@H]2C[C@@H](O)CN2C(=O)[C@@H](NC(=O)CCCCCCCCCN2CCN(S(=O)(=O)c3ccc(NC(=O)NCc4cccnc4)cc3)CC2)C(C)(C)C)cc1`, the Activity [1] was “Active”, the IC50 [2] was 190 nM and the Activity [3] was “Dose-Dependent Effect”. For the same molecule, the DC50 [4] was 1.5 nM and the IC50 (A2780 [5]) was 10 nM.
In the case of `Cc1ncsc1-c1ccc([C@H](C)NC(=O)[C@@H]2C[C@@H](O)CN2C(=O)[C@@H](NC(=O)CCCCCCCN2CCN(S(=O)(=O)c3ccc(NC(=O)NCc4cccnc4)cc3)CC2)C(C)(C)C)cc1`, the IC50 [2] is reported as 100 nM, the DC50 [4] is reported as greater than 100 nM and the IC50 (A2780 [5]) is reported as 5.9 nM.
With `Cc1ncsc1-c1ccc([C@H](C)NC(=O)[C@@H]2C[C@@H](O)CN2C(=O)[C@@H](NC(=O)COCCOCCOCCOCCOCCn2cc(CCN3CCN(S(=O)(=O)c4ccc(NC(=O)NCc5cccnc5)cc4)CC3)nn2)C(C)(C)C)cc1` the Activity [6] was “Active”, the Activity [7] was “inactive” and the IC50 [2] was 970 nM. The DC50 [4] was 50 nM and the IC50 (A2780 [5]) was 477 nM.
Work on `O=S(=O)(c1ccc(NC(=S)NCc2cccnc2)cc1)N1CCCCC1` yielded an IC50 (CT26) of 4600 nM, a TGI (A2780 [8]) of 49.8% and an IC50 (A2780 [5]) of 130 nM. The Activity [9] was “Non-Toxic”.
With `Cc1ncsc1-c1ccc([C@H](C)NC(=O)[C@@H]2C[C@@H](O)CN2C(=O)[C@@H](NC(=O)COCCOCCOCCn2cc(CCN3CCN(S(=O)(=O)c4ccc(NC(=O)NCc5cccnc5)cc4)CC3)nn2)C(C)(C)C)cc1` the Activity [6] was “Active”, the Activity [7] was “inactive” and the IC50 [2] was 94 nM. For the same molecule, the DC50 [4] was 50 nM and the IC50 (A2780 [5]) was 487 nM.
With `Cc1ncsc1-c1ccc([C@H](C)NC(=O)[C@@H]2C[C@@H](O)CN2C(=O)[C@@H](NC(=O)COCCOCCN2CCN(S(=O)(=O)c3ccc(NC(=O)NCc4cccnc4)cc3)CC2)C(C)(C)C)cc1` the Activity [10] was “inactive”, the IC50 [2] was 150 nM and the DC50 [4] was greater than 100 nM. The IC50 (A2780 [5]) was 1230 nM.
In the case of `Cc1ncsc1-c1ccc([C@H](C)NC(=O)[C@@H]2C[C@@H](O)CN2C(=O)[C@@H](NC(=O)CCCCCCCCCCN2CCN(S(=O)(=O)c3ccc(NC(=O)NCc4cccnc4)cc3)CC2)C(C)(C)C)cc1`, the Activity [1] is reported as “Active”, the IC50 [2] is reported as 230 nM and the Activity [3] is reported as “Dose-Dependent Effect”. It also gave a DC50 [4] of less than 4.6 nM and an IC50 (A2780 [5]) of 30 nM.
With `Cc1ncsc1-c1ccc([C@H](C)NC(=O)[C@@H]2C[C@@H](O)CN2C(=O)[C@@H](NC(=O)COCCOCCOCCN2CCN(S(=O)(=O)c3ccc(NC(=O)NCc4cccnc4)cc3)CC2)C(C)(C)C)cc1` the IC50 [2] was 130 nM, the Activity [11] was “Dose-Dependent Effect” and the DC50 [4] was 93 nM. For the same molecule, the IC50 (A2780 [5]) was 56 nM.
Work on `Cc1ncsc1-c1ccc([C@H](C)NC(=O)[C@@H]2C[C@@H](O)CN2C(=O)[C@@H](NC(=O)CCCCCCN2CCN(S(=O)(=O)c3ccc(NC(=O)NCc4cccnc4)cc3)CC2)C(C)(C)C)cc1` yielded an IC50 [2] of 120 nM, a DC50 [4] greater than 10000 nM and an IC50 (A2780 [5]) of 96 nM.
Molecule `CC(=O)N[C@H](C(=O)N1C[C@H](O)C[C@H]1C(=O)N[C@@H](C)c1ccc(-c2scnc2C)cc1)C(C)(C)C` has an IC50 [2] greater than 2000 nM and an IC50 (A2780 [5]) greater than 100000 nM.
With `Cc1ncsc1-c1ccc([C@H](C)NC(=O)[C@@H]2C[C@@H](O)CN2C(=O)[C@@H](NC(=O)COCCn2cc(CCN3CCN(S(=O)(=O)c4ccc(NC(=O)NCc5cccnc5)cc4)CC3)nn2)C(C)(C)C)cc1` the Activity [6] was “Active”, the Activity [7] was “inactive” and the IC50 [2] was 120 nM. For the same molecule, the DC50 [4] was 50 nM and the IC50 (A2780 [5]) was 433 nM.
With `Cc1ncsc1-c1ccc([C@H](C)NC(=O)[C@@H]2C[C@@H](O)CN2C(=O)[C@@H](NC(=O)CCCCCCCCCCCN2CCN(S(=O)(=O)c3ccc(NC(=O)NCc4cccnc4)cc3)CC2)C(C)(C)C)cc1` the Activity [1] was “Active”, the IC50 [2] was 310 nM and the Activity [3] was “Dose-Dependent Effect”. For the same molecule, the DC50 [4] was 2.4 nM and the IC50 (A2780 [5]) was 30 nM.
With `Cc1ncsc1-c1ccc([C@H](C)NC(=O)[C@H]2C[C@H](O)CN2C(=O)[C@@H](NC(=O)CCCCCCCCN2CCN(S(=O)(=O)c3ccc(NC(=O)NCc4cccnc4)cc3)CC2)C(C)(C)C)cc1` the IC50 [2] was 110 nM, the DC50 [4] was greater than 10000 nM and the IC50 (A2780 [5]) was 707 nM.
For `Cc1ncsc1-c1ccc([C@H](C)NC(=O)[C@@H]2C[C@@H](O)CN2C(=O)[C@@H](NC(=O)COCCOCCOCCOCCN2CCN(S(=O)(=O)c3ccc(NC(=O)NCc4cccnc4)cc3)CC2)C(C)(C)C)cc1`, the IC50 [2] was 130 nM, the Activity [11] was “Dose-Dependent Effect” and the DC50 [4] was 19 nM. The IC50 (A2780 [5]) was 173 nM.
In the case of `Cc1ncsc1-c1ccc([C@H](C)NC(=O)[C@@H]2C[C@@H](O)CN2C(=O)[C@@H](NC(=O)COCCOCCOCCOCCOCCN2CCN(S(=O)(=O)c3ccc(NC(=O)NCc4cccnc4)cc3)CC2)C(C)(C)C)cc1`, the IC50 [2] is reported as 190 nM, the Activity [11] is reported as “Dose-Dependent Effect” and the DC50 [4] is reported as 22 nM. For the same molecule, the IC50 (A2780 [5]) was 133 nM.
With `Cc1ncsc1-c1ccc([C@H](C)NC(=O)[C@@H]2C[C@@H](O)CN2C(=O)[C@@H](NC(=O)COCCOCCn2cc(CCN3CCN(S(=O)(=O)c4ccc(NC(=O)NCc5cccnc5)cc4)CC3)nn2)C(C)(C)C)cc1` the Activity [6] was “Active”, the Activity [7] was “inactive” and the IC50 [2] was 190 nM. For the same molecule, the DC50 [4] was 50 nM and the IC50 (A2780 [5]) was 737 nM.
With `Cc1ncsc1-c1ccc([C@H](C)NC(=O)[C@@H]2C[C@@H](O)CN2C(=O)[C@@H](NC(=O)COCCOCCOCCOCCn2cc(CCN3CCN(S(=O)(=O)c4ccc(NC(=O)NCc5cccnc5)cc4)CC3)nn2)C(C)(C)C)cc1` the Activity [6] was “Active”, the Activity [7] was “inactive” and the IC50 [2] was 83 nM. For the same molecule, the DC50 [4] was 50 nM and the IC50 (A2780 [5]) was 401 nM.
In the case of `Cc1ncsc1-c1ccc([C@H](C)NC(=O)[C@@H]2C[C@@H](O)CN2C(=O)[C@@H](NC(=O)COCCN2CCN(S(=O)(=O)c3ccc(NC(=O)NCc4cccnc4)cc3)CC2)C(C)(C)C)cc1`, the Activity [10] is reported as “inactive”, the IC50 [2] is reported as 160 nM and the DC50 [4] is reported as greater than 100 nM. For the same molecule, the IC50 (A2780 [5]) was 5510 nM.
In the case of `O=C(/C=C/c1cccnc1)NCCCCC1CCN(C(=O)c2ccccc2)CC1` [DAPORINAD], the Activity [12] is reported as “Toxic”, the Activity [13] is reported as “Toxic” and the TGI (A2780 [8]) is reported as 62.9%. The Activity [14] was “Toxic”, the IC50 (A2780 [5]) was 0.28 nM and the Activity [9] was “Non-Toxic”.
